From publication doi:10.1101/2024.10.11.617883, “A Streamlined High-Throughput LC-MS Assay for Quantifying Peptide Degradation in Cell Culture” (bioRxiv, 2024)
Like-named read-outs stand apart in the source and are kept apart here. Each block holds one compound with its values, some of them ahead of it.

Columns and labels:
[1] = in vitro; conditions: human, cells or culture medium
Procedure: (§1) Human mesenchymal stem cells (hMSCs) (Rooster Bio, LOT 310368) at passage 3 were seeded into 24 well plates at a seeding density of 75,000 cells per well in 1mL of RoosterBasal-MSC-CC (RoosterBio, SU-022) containing RoosterBooster-MSC (RoosterBio SU-003). After 24 hour the media was changed, and peptide library AcβA-RGEFV-X-NH2 was added to the cell media for a final concentration of 37 μM per peptide. Each Library was tested in three times, each in triplicate with three technical repeats for a total of 27 wells. 40 μl samples were collected from the media at hours 0, 1, 4, 8, 24, and 48 in duplicate.
(§2) In-between timepoints, one set of samples was loaded directly within the LC-MS and measured as soon as possible, then stored at 4°C. The second set of samples was immediately frozen at −80°C. After 48 hours, samples were kept frozen and thawed just prior to LC-MS, and 4μL of acetic acid was added to each well. After three weeks the samples were tested again.
(§3) From each sample, 10 μL of crude solution was introduced by the LC-MS through an Thermo Scientific Vanquish LC System (Thermo Fisher Scientific) which outputted to a Thermo Scientific LTQ XL Linear Ion Trap Mass Spectrometer (Thermo Fisher Scientific). The sampled mixture was trapped on a column (ProntoSIL C18 AQ, 120 Å, 3 μm, 2.0 × 50 mm HPLC Column, PN 0502F184PS030, MAC-MOD Analytical Inc.). The samples were loaded onto the column with a solvent containing acetonitrile/water, 5:95 (v/v) containing 1% acetic acid at a flow rate of 300 μL/min and held for one minute. The sample was then eluted from the column with a linear gradient of 5–40% Solvent B (1% acetic acid in acetonitrile) at the same flow rate for five minutes. This was followed by a 1 min ramp up to 100% solvent B, where it was re-equilibrated with solvent A (1% acetic acid) to 5% solvent B over the course of 1 min and held there for 2 min. The column temperature was a constant 29 °C. The mass spectrometer was operated in positive ion mode. Using a heated ESI, the source voltage was set to 4.1 kV, and the capillary temperature was 350 °C.
(§4) Data analysis was performed on Xcalibur Software (Thermo Scientific). Peptides were identified automatically using the Thermo Xcalibur Processing Setup window where the mass (m/z) ±0.5 AMU and expected retention times for each quantified peptide were inputted. This was later used to isolate individual peptide species from the total ion count (TIC) trace using the Thermo Xcalibur Quan Setup window, where the area under the curve was calculated and visually inspected for accuracy. […] The integrated peak area of the peptide of interest was divided by the NH2-βF(βA)6-Amide internal standard to create an area ratio. Relative amounts of a peptide of peptide were then calculated by normalized all values to their corresponding time zero area ratio. Calculated data was visualized using RStudio.

[2] = Retention on the reverse-phase LC-MS column; type: physicochemical
Procedure: The column temperature was a constant 29 °C. The mass spectrometer was operated in positive ion mode.
Since salts from cell culture media adversely impact ionization and foul the MS, we send the mobile phase from the first 1.5 minutes of LCMS to waste prior to ionization to prevent salt accumulation in the mass spectrometer. Accordingly, peptides and internal standards which elute before the gradient begins are not suitable for quantification since they will not be analyze by the mass spectrometer. N-terminal acetylation, the addition of a phenylalanine, or β-homophenylalanine improves retention time by increasing they hydrophobicity of the polypeptide, which increases the affinity to the column (Figure 2A). After 48 hours of degradation, three internal standards candidates had both good retention times and less than 10% degradation (Figure 2B): 1) Ac-βA6-Amide, 2) NH2-βFβA6-Amide, and 3) Ac-FβA6-Amide. The ability of molecules to be identified in mass spectrometry is dependent on their propensity to become ionized, and the Ac-βA6-Amide standard was excluded due to weak signal intensity of the LC-MS (not shown), likely due to the lack of charged groups. […]

[3] = human, cells or culture medium
Procedure: as §1, §2, §3, §4

[4] = test system: human mesenchymal stem cells (hMSCs)
Procedure: as §1, §2, §3, §4

metabolised at 48 h [1]: < 10%
Structure (SMILES): CC(=O)N[C@@H](Cc1ccccc1)C(=O)NCCC(=O)NCCC(=O)NCCC(=O)NCCC(=O)NCCC(=O)NCCC(N)=O [Ac-FβA6-Amide]

Structure (SMILES): NCCC(=O)NCCC(=O)NCCC(=O)NCCC(=O)NCCC(=O)NCCC(N)=O [NH2-(βA)6-Amide]
affinity to the LC-MS column (retention) ([2]; ProntoSIL C18 AQ, gradient begins after 1 min at 5% B, first 1.5 minutes sent to waste): eluting before the chromatography gradient begins

metabolised at 48 h [3]: < 10%
remaining at 48 h [3]: > 92%
peptide elution time ([2]; ProntoSIL C18 AQ 2.0 x 50 mm, 5% B held 1 min then 5-40% acetonitrile (1% acetic acid) over 5 min, 300 μL/min, 29 °C, retention tied to hydrophobicity and column affinity): 2.68 min
time stable in cell culture [4]: 48 h
Structure (SMILES): NC(=O)CCNC(=O)CCNC(=O)CCNC(=O)CCNC(=O)CCNC(=O)CCNC(=O)C[C@@H](N)Cc1ccccc1 [NH2-βFβA6-Amide]

metabolised at 48 h [1]: < 10%
Structure (SMILES): CC(=O)NCCC(=O)NCCC(=O)NCCC(=O)NCCC(=O)NCCC(=O)NCCC(N)=O [Ac-βA6-Amide]
